System: SYO-1 complex spheroid growth, percent test/control
Assay: Anticancer human tumor SYO-1 cell line growth inhibition [Asc];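 note: compound exposure lasted 7 days after spheroids grew 3 days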;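 for viability, T/C: 100% = DMSO vehicle control viability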
Details: for IC50: curve of first compound; for viability, T/C: stronger effect = lower value
Procedure, shortened: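 Concentration series start at each agent's clinical Cmax, or at 10 microM when none is established, and drop in half-log steps; agents are applied alone or together to complex spheroids built with HUVEC and hMSC.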

In the case of `COc1c(OCCCN2CCOCC2)ccc2c3n(c(=NC(=O)c4cnc(N)nc4)nc12)CCN3` + CCN1C(C(=O)NC23CCC(C(=O)O)(CC2)CC3)C(c2cccc(Cl)c2F)C2(C(=O)Nc3cc(Cl)ccc32)C12CCCCC2, the IC50 (second compound 0.00949 µM) is reported as 800 nM, the IC50 (second compound 0.03 µM) is reported as 540 nM and the IC50 (second compound 0.0949 µM) is reported as 123 nM. For the same compound, the IC50 (second compound 0.3 µM) was < 3.16 nM, the IC50 (second compound 0.949 µM) was < 3.16 nM and the IC50 (second compound 3 µM) was < 3.16 nM. It also gave a viability, T/C (second compound 0.00949 µM, first compound 0.00316 µM) of 110%, a viability, T/C (second compound 0.00949 µM, first compound 0.01 µM) of 109% and a viability, T/C (second compound 0.00949 µM, first compound 0.0316 µM) of 101%. It also gave a viability, T/C (second compound 0.00949 µM, first compound 0.1 µM) of 85.2%, a viability, T/C (second compound 0.00949 µM, first compound 0.316 µM) of 75.4% and a viability, T/C (second compound 0.00949 µM, first compound 1 µM) of 43.4%. It also gave a viability, T/C (second compound 0.03 µM, first compound 0.00316 µM) of 103%, a viability, T/C (second compound 0.03 µM, first compound 0.01 µM) of 103% and a viability, T/C (second compound 0.03 µM, first compound 0.0316 µM) of 96.9%. For the same compound, the viability, T/C (second compound 0.03 µM, first compound 0.1 µM) was 80.8%, the viability, T/C (second compound 0.03 µM, first compound 0.316 µM) was 69.3% and the viability, T/C (second compound 0.03 µM, first compound 1 µM) was 30.6%. It also gave a viability, T/C (second compound 0.0949 µM, first compound 0.00316 µM) of 85.8%, a viability, T/C (second compound 0.0949 µM, first compound 0.01 µM) of 86.3% and a viability, T/C (second compound 0.0949 µM, first compound 0.0316 µM) of 77.2%. The viability, T/C (second compound 0.0949 µM, first compound 0.1 µM) was 52.1%, the viability, T/C (second compound 0.0949 µM, first compound 0.316 µM) was 32.2% and the viability, T/C (second compound 0.0949 µM, first compound 1 µM) was 16%. The viability, T/C (second compound 0.3 µM, first compound 0.00316 µM) was 20.3%, the viability, T/C (second compound 0.3 µM, first compound 0.01 µM) was 23.4% and the viability, T/C (second compound 0.3 µM, first compound 0.0316 µM) was 19.3%. For the same compound, the viability, T/C (second compound 0.3 µM, first compound 0.1 µM) was 16.3%, the viability, T/C (second compound 0.3 µM, first compound 0.316 µM) was 12% and the viability, T/C (second compound 0.3 µM, first compound 1 µM) was 2.7%. The viability, T/C (second compound 0.949 µM, first compound 0.00316 µM) was 2.01%, the viability, T/C (second compound 0.949 µM, first compound 0.01 µM) was 3.89% and the viability, T/C (second compound 0.949 µM, first compound 0.0316 µM) was 3.28%. It also gave a viability, T/C (second compound 0.949 µM, first compound 0.1 µM) of 2.38%, a viability, T/C (second compound 0.949 µM, first compound 0.316 µM) of 3.39% and a viability, T/C (second compound 0.949 µM, first compound 1 µM) of 0.44%. The viability, T/C (second compound 3 µM, first compound 0.00316 µM) was 1.01%, the viability, T/C (second compound 3 µM, first compound 0.01 µM) was 1.03% and the viability, T/C (second compound 3 µM, first compound 0.0316 µM) was 1.75%. For the same compound, the viability, T/C (second compound 3 µM, first compound 0.1 µM) was 0.55%, the viability, T/C (second compound 3 µM, first compound 0.316 µM) was 0.57% and the viability, T/C (second compound 3 µM, first compound 1 µM) was 0.45%.
